Experimental data published in patent publication US12329137B2, “Method of preparing mouse model of herpes” (AJOU UNIVERSITY INDUSTRY-ACADEMIC COOPERATION FOUNDATION, priority 2019, dated 2025).

How the values were obtained:
Format in all cases: in vivo, ICR mice
[1] = test system: herpes simplex virus type 1 (HSV-1); assay: Prevalence rate of herpes in mice given HSV-1 with hydrocortisone
Method: (§1) The ear inner conch of a large number of 5-week-old ICR mice bred and reared in SPF (specific pathogen free) conditions was injured by being scratched with an injection needle at a strength sufficient to prevent blood from bleeding out, then the injured site was first inoculated with 20 μL of HSV-1 (herpes simplex virus type 1, F strain) solution (1×10^6 pfu/mL), and the mice were reared for 10 days. Next, the same injured site was secondarily inoculated with the same dose of HSV-1. One time a day for 5 days from the day after the first inoculation had been performed and one time a day for 5 days from the day after the second inoculation had been performed, hydrocortisone was intraperitoneally injected into each mouse at 50 μg/day to 500 μg/day. Thereafter, the faces of the mice were observed, mice having blisters formed around the lips were selected, and these were used as mouse models of herpes (FIG. 1).

[2] = test system: CD8+ immune-related cells; assay: Flow cytometry frequency of CD8+ cells in peripheral blood leukocytes; conditions: HSV-1 inoculated mice
Method: as §1
(§2) Each mouse model of herpes was prepared by way of the method of Example 1 except that hydrocortisone was administered at about 50 μg/day, 150 μg/day, or 500 μg/day. Thereafter, peripheral blood was collected from each of the mouse models of herpes, peripheral blood leukocytes was isolated and obtained from the collected blood, and the frequencies of immune-related cells (CD4+, CD8+, and DX5+) contained in the peripheral blood leukocytes were measured and comparatively analyzed via flow cytometry (Tables 1 and 2). In this case, mouse models of herpes prepared without administration of hydrocortisone were used as a control group.

[3] = test system: DX5+ immune-related cells; assay: Flow cytometry frequency of DX5+ cells in peripheral blood leukocytes; conditions: HSV-1 inoculated mice
Method: as §1, §2

[4] = test system: CD4+ immune-related cells; assay: Flow cytometry frequency of CD4+ cells in peripheral blood leukocytes; conditions: HSV-1 inoculated mice
Method: as §1, §2

[5] = hydrocortisone 50 μg/day intraperitoneal
[6] = hydrocortisone 150 μg/day intraperitoneal
[7] = hydrocortisone 500 μg/day intraperitoneal

## C[C@]12CCC(=O)C=C1CC[C@@H]1[C@@H]2[C@@H](O)C[C@@]2(C)[C@H]1CC[C@]2(O)C(=O)CO [Hydrocortisone, hydrocortisone]
[1]; HSV-1 + hydrocortisone at 150 μg/day in combination
  Prevalence rate of herpes (symptomatic mice/total mice): 14.7% (14/95)
[1]; HSV-1 + hydrocortisone at 150 μg/day in combination vs HSV-1 singly
  prevalence rate of herpes relative to mice administered with HSV-1 singly: about 2.5 times
[2]; [5]
  expression frequency of CD8+ cells: 6.44 ± 2.6%
[2]; [6]
  expression frequency of CD8+ cells: 4.78 ± 1.7%
[2]; [7]
  expression frequency of CD8+ cells: 4.2 ± 1.7%
[3]; [5]
  expression frequency of DX5+ cells: 4.4 ± 2.4%
[3]; [6]
  expression frequency of DX5+ cells: 2.89 ± 1.9%
[3]; [7]
  expression frequency of DX5+ cells: 2.5 ± 1.9%
[4]; [5]
  expression frequency of CD4+ cells: 15.8 ± 8.8%
[4]; [6]
  expression frequency of CD4+ cells: 12.4 ± 7.8%
[4]; [7]
  expression frequency of CD4+ cells: 12.3 ± 4.7%
